Measurements published in patent US20210244712A1, “METHODS FOR TREATING PATIENTS WITH CANCER HAVING DEFECTS IN CYCLIN D REGULATION” (NysnoBio Ireland DAC, priority 2018, published 2021).

What was measured:
OAW28 = assay: Cell proliferation assay; type: cell-based; settings: Homo sapiens, OAW-28
Cyclin D = Cyclin D degradation in cell lines; type: cell-based; settings: text summary of Table 7
A2780 = assay: Senescence quantification (SA-βGal); type: cell-based; settings: Compound 42 50, 100, or 150 nM, 96 hours, compared to control (DMSO)
Description: (§1) Senescence was quantified in ovarian cell lines A2780, OAW42, and ES-2. Cell lines A2780 has no cyclin D pathway mutations and has wt Rb and Parkin expression. Cell line OAW42 has increased CDK4 and increased CDK6 with wt Rb and Parkin expression. Cell line ES-2 has increased cyclin D and increased mutant […] with wt Rb and Parkin expression.
(§2) Day 1: 96 well plate was seeded with 4000 cells/well and incubated for 24 hours at 37° C.
(§3) Day 2: Compound 42 (50, 100, or 150 nM) or palbociclib (1 μM) as positive control were added to the wells and the plate was incubated for 96 hours at 37° C.
(§4) Day 6: Senescence cells histochemical Staining Kit (Sigma) was used. The growth medium form the cells were aspirated then washed twice with fresh […]. […] 100 μL filtered Fixation Buffer was added per well and the plate was incubated for 6-7 minutes at room temperature. Then, the cells were rinsed 3 times with PBS. 50 μL of the Staining Mixture was added per well and incubated at 37° C. overnight without CO2 (staining is pH dependent). After staining, the Staining Mixture was removed, PBS and Hoechst dye (1 μg/mL) were added. Ten images were taken with Epifluorescence Microscope using the blue filter and 10 images were taken in the brightfield. The images were used to count the total cell number—the positive blue cells were counted in the bright field. The percentage of cells expressing β-galactosidase was calculated.
(§5) Method 1: Mammalian β-Galactosidase Assay Kit (Thermo Scientific) was used. […] The cells were washed once with PBS. 100 μL of the β-Galactosidase Assay Reagent was added to each well and the plate was covered and incubated for 30 minutes at 37° C. without CO2. The absorbance was measured at 405 nm. If no change was observed, the plate was incubated for an extra 30 minutes.
(§6) Method 2: Assay of a portion of the lysate. The cells were washed once with PBS. 50 μL of the M-PER Reagent was added to each well and the plate was incubated at room temperature for […]. 25 μL of lysate was removed and use it for Protein Quantification (BCA). The date was normalize by protein content.

ES-2 = assay: Senescence quantification (SA-βGal); type: cell-based; settings: Compound 42 50, 100, or 150 nM, 96 hours, compared to control (DMSO)
Description: as §1, §2, §3, §4, §5, §6

OAW42 = assay: Senescence quantification (SA-βGal); type: cell-based; settings: Compound 42 50, 100, or 150 nM, 96 hours, compared to control (DMSO)
Description: as §1, §2, §3, §4, §5, §6

[1] = HCT-116 xenograft model, body weight and adverse events; type: in vivo; settings: for weight loss or adverse events: Groups 2-6 of Table 8, IP daily for 20 days; for body weight: throughout the duration of the study, Compound 42 1 and 5 mg/kg, Compound F 10 or 25 mg/kg
Description: Treatments were initiated when turner volume reached 100-150 mm^3. Treatments started on Day 5. Test compounds were administered intraperitoneally (II′) in 10 mg/mL solution comprising 10% N,N-dimethyl acetamide, 15% macrogol 15 hydroxy stearate, polyethylene glycol-15-hydroxystearate, and 75% aqueous hydroxypropyl-beta-cyclodextrin.
Observation and data collection: After tumor cells inoculation, the animals were checked daily for morbidity and mortality. At the time of routine monitoring, the animals were checked for any adverse effects of tumor growth and treatments on normal behavior such as mobility, visual estimation of food and water consumption, body weight gain/loss, eye/hair matting and any other abnormal effects, Death and observed clinical signs were recorded, per […] IACUC. Tumor volumes were measured every 3-4 days in two dimensions using an electronic caliper, sad the volume data are expressed in, mm3 using the formula: V=0.5 a×b^2 where a and b are fee long and short diameters of the tumor, respectively. Dosing and tumor volume measurement procedures were conducted in a Laminar Flow Cabinet according to Altogen Labs IACUC regulations.
Body weight loss daring fee study: Sacrifice fee mouse when one measurement of body weight loss (BWL)>20% (only for control animals). Animal research associated wife this study was conducted under Altogen Labs IACUC regulatory space. Altogen Labs IACUC guidelines were followed in case of BWL and any other conditions.

Caco-2 = assay: Cell proliferation assay; type: cell-based; settings: Homo sapiens, 72 hrs, read-out: Cell Viability: IC50
Description: (§7) Measurement of the inhibitive effect of compounds on cancer cell proliferation was performed. The assays were performed under the following conditions: Cells are harvested at a concentration of 4×10^4 cells/ml in media. Volumes of 100 μL/well of these cell suspensions were added to a 96 well plate using a multichannel pipette. Plates were gently agitated to ensure an even dispersion of cells over a given plate. Cells were then incubated at 37° C., 5% CO2 overnight. Following this, 100 μL of compound at varying concentrations was added to wells in triplicate. Control wells are those with 100 μL media containing 0.33% DMSO added to cell suspension (this is the equivalent volume of DMSO found in the highest concentration of drug). Plates were then gently agitated, as above, and incubated at 37° C., 5% CO2 for 72 hrs (control wells have reached 80-90% confluency). Assessment of cell proliferation in the presence of Compounds C and F was determined by the acid phosphatase assay.
(§8) Following the incubation period of 72 hrs, media was removed from the plates. Each well on the plate was washed twice with 100 μL PBS. This was then removed and 100 μL of freshly prepared phosphatase substrate (10 mM p-nitrophenol phosphate in 0.1M sodium acetate, 0.1% triton X-100, pH 5.5) was added to each well. The plates were then incubated in the dark at 37° C. for 2 hours. Color development was monitored during this time. The enzymatic reaction was stopped by the addition of 50 μL of 1N NaOH. The plate was read in a dual beam plate reader at 405 nm with a reference wavelength of 620 nm. The absorbance reading of the latter is subtracted from the former, and the effect of the drug on cell proliferation was then measured as a percentage against the control cells (DMSO), which is taken as 0% inhibition.

Calu-1 = assay: Cell proliferation assay; type: cell-based; settings: Homo sapiens, 72 hrs, read-out: Cell Viability: IC50
Description: as §7, §8

HCC38 = assay: Cell proliferation assay; type: cell-based; settings: Homo sapiens, 72 hrs, read-out: Cell Viability: IC50
Description: as §7, §8

Hutu 80 = assay: Cell proliferation assay; type: cell-based; settings: Homo sapiens, HuTu80, 72 hrs, read-out: Cell Viability: IC50
Description: as §7, §8

KPL-1 = assay: Cell proliferation assay; type: cell-based; settings: 72 hrs, read-out: Cell Viability: IC50
Description: as §7, §8

MDA-MB-468 = assay: Cell proliferation assay; type: cell-based; settings: Homo sapiens, 72 hrs, read-out: Cell Viability: IC50
Description: as §7, §8

NC-H196 = assay: Cell proliferation assay; type: cell-based; settings: 72 hrs, read-out: Cell Viability: IC50
Description: as §7, §8

NCl-H226 = assay: Cell proliferation assay; type: cell-based; settings: 72 hrs, read-out: Cell Viability: IC50
Description: as §7, §8

SK-CO-1 = assay: Cell proliferation assay; type: cell-based; settings: Homo sapiens, 72 hrs, read-out: Cell Viability: IC50
Description: as §7, §8

With `Cc1ccccc1C(=O)Nc1nc(NC(=O)c2ccccc2C)n(-c2ccc(OC(F)(F)F)cc2)n1` [Compound 42, N,N′-(1-(4-(trifluoromethoxy)phenyl)-1H-1,2,4-triazole-3,5-diyl)bis(2-methylbenzamide)] the IC50 (OAW28; Ovarian OAW28, overexpression of Cyclin D, loss of p16 (mutant p53), loss of RB) was 0.14 µM, the EC50 (OAW28; Table 7a, Ovarian (OAW28)) was 0.114 µM and the “degrading Cyclin D, overall statement” value (Cyclin D) was “effective in degrading Cyclin D”. For the same molecule, the “senescence (SA-βGal levels)” value (A2780) was “induced senescence”, the “senescence (SA-βGal levels)” value (ES-2) was “induced senescence” and the “senescence (SA-βGal levels)” value (OAW42) was “induced senescence”. The “weight loss or adverse events” value [1] was “No weight loss or any adverse events” and the body weight [1] was “maintained body weight”.

Work on `Cc1ccccc1C(=O)Nc1nc(NC(=O)c2ccccc2C)n(-c2ccccc2)n1` [Compound F, 2-methyl-N-[5-[(2-methylbenzoyl)amino]-1-phenyl-1,2,4-triazol-3-yl]benzamide] yielded an IC50 (Caco-2) greater than 10 µM, an IC50 (Calu-1) of 43.3 µM and an IC50 (HCC38) of 5.77 µM. The IC50 (Hutu 80) was 1.63 µM, the IC50 (KPL-1) was 3.86 µM and the IC50 (MDA-MB-468) was 3.18 µM. For the same molecule, the IC50 (NC-H196) was 2.83 µM, the IC50 (NCl-H226) was 7.33 µM and the IC50 (SK-CO-1) was 0.98 µM. For the same molecule, the “weight loss or adverse events” value [1] was “No weight loss or any adverse events” and the body weight [1] was “maintained body weight”.
